Entries after “also recorded” stand apart in the source; their conditions may differ.
Experiments:
[1] = system: CNTF; test: Striatal CNTF levels by ELISA; format: in vivo, rat; details: adult rats, oral 50 mg/kg/day for two months
Experimental: CNTF protein was determined with an ELISA that utilizes a monoclonal capture antibody which recognizes a non-C-terminal epitope on both rat and human CNTF (Regeneron, Tarrytown, N.Y.). The captured CNTF was recognized by a polyclonal rabbit anti-rCNTF reporter antibody. An alkaline phosphatase-tagged goat anti-rabbit IgG was used to generate the signal. In practice, 96-well Immulon plates were coated with capture antibody overnight, then blocked and washed. After overnight incubation of standards and samples, plates were washed and reporter antibody added. Following final washes, the reaction was developed using the GIBCO BRL ELISA amplification system substrate and amplifier. The reaction was stopped with 0.5 N H2SO4 and the plates read at two wavelengths (490 nm and 650 nm).
ARIs Toirestat and Ponalrestat were orally administered to adult rats at a dose of 50 mg/kg/day for two months as described in Example 1 and in Mizisin et al (1997) Diabetes 46: 647-652. For each rat, the left and right striatum were dissected and combined for homogenization in phosphate buffered saline. CNTF levels in extract preparations were then measured by ELISA, as described in Example 1. Four rats served as controls, and five rats each received Tolrestat and Ponalrestat. Five ELISA assays were run for each rat and one mean value derived for each rat.

[2] = system: CNTF; test: CNTF-like bioactivity of sciatic nerve homogenates (24 hour survival of E8CG neurons); format: in vivo, rat
Experimental: These studies were conducted with the approval of the San Diego Veterans Administration Animal Studies Subcommittee. Female Sprague-Dawley rats (240-300 g; Charles River, San Diego, Calif.) were housed in cages with wire bottoms to reduce contact with urine and feces. Groups were established and fed either a 40% D-galactose diet or a control diet specially formulated by Purina that contained 40% solka floc, a nonnutritive fiber, to balance nutritional intake. All diets contained 100% of the micronutrients required by rats and, with water, were available ad libitum. Each of these diet groups contained animals that were treated with the ARI, Ponalrestat (50 mg/kg), daily by oral gavage. After two months, rats were anesthetized by intraperitoneal injection (1 ml/kg ip) of pentobarbital sodium (12.5 mg/ml) and diazepam (1.25 mg/ml) in bacteriostatic saline. Under deep anesthesia, motor nerve conduction velocity (MNCV) was measured in the left hindlimb prior to removal of the sciatic nerve. The proximal portion was processed for subsequent light microscopic examination and the distal portion used for gas chromatographic analysis of nerve polyols. The contralateral sciatic nerve was removed and used for assay of CNTF-like neurotrophic activity and either Northern blot or ELISA analysis of CNTF mRNA or protein, respectively.
Bioassays were performed on extracts of sciatic nerve as described previously by Calcutt et al. (1992) Brain Res. 575:320-324. Briefly, 4 mm segments were homogenized in cold Hank's balanced salt solution, centrifuged and the soluble supernatant aspirated. An aliquot of the supernatant was used to determine the amount of protein using the Bradford assay. The remaining supernatant was used to assay CNTF-like activity by the ability to support the 24 hour survival of day eight embryonic chick ciliary ganglia (E8CG) neurons. E8CG neurons were obtained from chick ciliary ganglia after trypsin treatment and trituration in Dulbecco's Modified Eagle's Medium plus 10% fetal calf serum (DMEM+10% FCS). After seeding onto a tissue culture dish for 2.5 hours to allow attachment of nonneuronal cells, unattached neurons were collected, counted and added to 96-well microtiter plates (500 neurons/well) precoated with polyornithine and laminin. Nerve homogenates were serially diluted in DMEM+10% FCS, added to the microtiter plates and incubated for 24 hours. A dose-response curve using rat recombinant CNTF was used as a standard and to establish the maximum CNTF effect for each assay. […] Cells were then fixed and the number of surviving, intact, blue-staining cells counted using phase contrast microscopy. […]

O=C(O)Cc1nn(Cc2ccc(Br)cc2F)c(=O)c2ccccc12 [Ponalrestat, 3-(4-bromo-2-fluorobenzyl)-4-oxo-3H-phthalazin-1-ylacetic acid] was tested, and the “Increase in striatal CNTF activity level versus control group” value [1] was “significantly increased; also recorded: approximately three-fold”, the “Increase of CNTF associated activity compared to normal rats that did not receive any ARI” value ([2]; normal rats, survival of embryonic chick ciliary ganglia neurons) was “two and one-half fold increase” and the “Increase of CNTF-like bioactivity (TU/ml) compared to untreated control animals” value ([2]; sciatic nerve, control diet rats, 50 mg/kg daily oral, two months) was about 250%. The “CNTF-like bioactivity relative to control levels” value ([2]; sciatic nerve, galactose-fed rats with ARI) was “not restored to control levels” and the “Increase of CNTF-like bioactivity (TU/ml) compared to the untreated galactose group” value ([2]; sciatic nerve, galactose-fed rats, 50 mg/kg daily oral, two months, P<0.05) was 60%.
